{
  "source": "patent US20230287316A1",
  "about": "“INTER-ORGAN PLATFORM WITH TISSUE-SPECIFIC NICHES FOR A MICROPHYSIOLOGICAL SYSTEM ON A CHIP” (THE TRUSTEES OF COLUMBIA UNIVERSITY IN THE CITY OF NEW YORK, priority 2020, published 2023)",
  "type_in_all_cases": "cell-based, human",
  "key": {"[1]": {"system": "non-metastatic TE-ES bone tumor", "assay": "Linsitinib on non-metastatic TE-ES in 1:1 mixed media", "conditions": "12 µM regimen", "protocol": "(§1) Cell viability was analyzed using a previously established protocol.^59 Cancer cell viability was measured for GFP-Luciferase labelled cancer cells using ONE-Glo luciferase substrate that was prepared according to manufacturer’s protocol (Promega). Samples were collected following 3, 7, and 21 days cycles of linsitinib treatment. Where noted, longitudinal cell viability was also assessed using luminescence, though at the cost of signal strength. Briefly, in vivo grade VivoGlo™ Luciferin (Promega) was made at a 200x stock concentration (30 mg/ml) in water, added to sample culture media at a 1:200 dilution, and scanned using a spectrophotometer (Biotek). Some of the IC50 values were determined using cell viability data generated using an MTT assay (RealTime-Glo™ MT Cell Viability Assay, Promega) that were analyzed according to manufacturer’s protocol.\nOsteocalcin (OCN), osteopontin (OPN), and lactic acid dehydrogenase (LDH) secreted levels were all measured using a similar approach. Supernatants were isolated from controls and drug treated TE-ES and equal amounts were used in each assay according to the manufacturer’s instructions. For OCN a Human Osteocalcin Quantikine^R ELISA (R&D Systems) was used, while for OPN it was a Human Osteopontin Quantikine^R ELISA (R&D Systems). LDH secretion was determined using a Lactate Dehydrogenase Assay Kit (Colorimetric; Abcam)."}, "[2]": {"system": "non-metastatic TE-ES (RD-ES) bone tumor", "assay": "Linsitinib on non-metastatic engineered ES bone tumors (TE-ES) cultured in isolation", "text": "FIGS. 31A-E show aspects of the evaluation of the dose-dependent effects of doxorubicin and linsitinib on engineered non-metastatic and metastatic ES bone tumors. […] An MTT viability assay was used to determine drug toxicity, with luminescence generated by viable cells measured at the endpoint (10^4 cells per well, mean± s.e.m., n = 3). […] Tumors are outlined by white dashes and validated using corresponding H&E stains of the identical loci. All scale bars: 250 µm.\n(§2) FIGS. 32A-D show aspects of responses of human engineered bone ES tumors and cardiac tissues to linsitinib in isolated platform chambers. […] Luminescence as a function of cancer cell number and viability was measured (mean± s.e.m., n = 6 for day 3, and n = 3 for day 7 and 21).\nThe effects of linsitinib were studied in an experiment performed according to the 3-week treatment cycle used in the clinical trial (3 days of drug administration followed by 4 days without the drug, in 3 cycles), with luminescence signal serving as an indicator of cancer cell viability within the TE-ES.\nSupernatants were collected from each individual sample across the duration of the drug treatments and were analyzed for osteoblast function (OCN, OPN) and for cytotoxicity (LDH) (mean± s.e.m., n = 3).\nTwo weeks following the initiation of osteogenic differentiation, aggregates of ES tumor cells were prepared as described previously, using 0.3 × 10^6 cells per aggregate. After 1 week of culture, corresponding to the end of bone tissue culture (3 weeks), the primary ES cell aggregates were placed into the engineered bone constructs (3 aggregates per construct, placed apart of each other). Tumor models were established for two different types of primary ES cells: non-metastatic (RD-ES) and metastatic (SK-N-MC). Tissue engineered RD-ES and SK-N-MC tumors were cultured in the RPMI and EMEM media, respectively, supplemented with 10% FBS and 1% penicillin/streptomycin. Bone constructs cultured without tumor cell aggregates (TE-bone) in RPMI and EMEM media were used as controls.\nTo assess apoptosis, paraffin embedded tissue sections were first deparaffinized with CitriSolv, rehydrated with graded series of ethanol washes, and then stained with a Click-iT® TUNEL Alexa Fluor® imaging assay (Thermo Fisher Scientific). Following nuclear counterstaining with DAPI (Life Technologies), the TUNEL labelled slides were imaged with an IX81 inverted fluorescent microscope (Olympus) and a Pike F032B camera (ALLIED Vision), using NIS-Elements AR software, and processed using ImageJ (NIH). Four representative images per condition were then analyzed using the previously developed automatic TUNEL cell counter plugin for ImageJ to quantify DAPI^+ cells and TUNEL^+ cells.\nas §1, with “(Biotek).” for “(Biotek). Some of the IC50 values were determined using cell viability data generated using an MTT assay (RealTime-Glo™ MT Cell Viability Assay, Promega) that were analyzed according to manufacturer’s protocol.”"}, "cardiac tissues": {"system": "cardiac tissues", "assay": "Linsitinib on cardiac tissue in the integrated platform with microfluidic perfusion", "protocol": "The TE-ES and cardiac tissues were then cultured in the integrated platform with perfusion of mixed media. Linsitinib was introduced into the reservoir and delivered to tissues via circulation of perfusate and diffusion into the tissues.\nFIGS. 35A-E show aspects of responses of human engineered bone ES tumors and cardiac tissues to linsitinib in the integrated platform with microfluidic perfusion. FIGS. 35A and 35B show the responses when non-metastatic ES bone tumors and cardiac tissues were exposed to linsitinib (12 µM) over a period of 72 hours in either isolated culture or within the perfused integrated platform. Luminescence (FIG. 35A) and LDH secretion (FIG. 35B) as functions of cancer cell number and viability as well as cytotoxicity, respectively, were measured (mean± s.e.m., n = 3).\n(§3) To measure the cardiac contractility online, we took contractility videos of the tissues that were analyzed using the native MATLAB code we previously developed. Tissue contractility was measured by tracking the change in tissue area as a function of time. Acquired video frames were inverted and an automated intensity threshold was used to identify cell location in the video frame. First, a baseline time point in the video corresponding to a relaxed tissue state was selected. Absolute differences in cell area from the baseline frame were then calculated to create a time course of cell area changes over time. The resulting time courses were analyzed using a native MATLAB (MATHWorks) automated peak finding algorithm to determine locations of maximum cell contractions in the time profiles. Beat period lengths were determined from the length of time between the pairs of local maxima, and the beat frequencies were determined by inverting beat periods. The rate of proarrhythmic events was calculated by the ratio of the number of proarrhythmic events over the total number of beats."}, "[3]": {"system": "engineered cardiac tissues", "assay": "Linsitinib on engineered cardiac tissues cultured in isolation", "conditions": "isolated", "protocol": "as §2\nSpecifically, linsitinib was dissolved at a 10 mM concentration in DMSO (Corning) and mixed in with the respective cell medium at a […] concentration unless otherwise noted. Vehicle treatments involved just the addition of DMSO at identical volumes as a control. Tissues were randomly assigned to experimental groups. Medium was changed every day.\nas §3"}, "[4]": {"conditions": "12 µM, 3-week regimen, supernatants"}},
  "data": [
    {"smiles": "C[C@]1(O)C[C@@H](c2nc(-c3ccc4ccc(-c5ccccc5)nc4c3)c3c(N)nccn32)C1", "note": "[linsitinib]", "values": [
      {"measurement": "OCN secretion", "setting": "[1]", "value": "increased only slightly"},
      {"measurement": "cancer cell population level (luminescence)", "setting": "[1]", "value": "~ 30 % of their starting population"},
      {"measurement": "response to linsitinib concentration (luminescence viability)", "setting": "[2]; 0, 1.2, 12, and 120 µM for 72 hours", "value": "dose-dependent response"},
      {"measurement": "apoptosis (TUNEL assay)", "setting": "[2]; 12 µM", "value": "increases in apoptosis"},
      {"measurement": "cell viability (luminescence)", "setting": "[2]; 12 µM", "value": "significant reduction in cell viability"},
      {"measurement": "LDH secretion (cytotoxicity)", "setting": "[2]; [4]", "value": "spiked in both models immediately following drug administration, but significantly more so"},
      {"measurement": "Osteocalcin secretion", "setting": "[2]; [4]", "value": "decreased"},
      {"measurement": "cancer cell population (luminescence)", "setting": "[2]; 12 µM, 21-day clinical treatment regimen", "value": "initial decrease in cancer cell population in the non-metastatic model and this population appeared unable to continue expanding"},
      {"measurement": "drug response (luminescence)", "setting": "[2]; 12 µM, after 3 days", "value": "significant drug response"},
      {"measurement": "osteopontin secretion", "setting": "[2]; 12 µM, throughout the 21 days", "value": "significantly increased"},
      {"measurement": "drug response of tumors derived from sorted linsitinib-resistant cells", "setting": "[2]; second 21-day 12 µM treatment regimen", "value": "significant initial drug response"},
      {"measurement": "rate of proarrhythmic events", "setting": "cardiac tissues; 12 µM, integrated model", "value": "approximately 11%"},
      {"measurement": "beat frequency", "setting": "cardiac tissues; 12 µM, integrated platform", "value": "did not observe linsitinib-mediated changes in beat frequency"},
      {"measurement": "response to subsequent isoproterenol exposure", "setting": "cardiac tissues; after 12 µM linsitinib, integrated platform", "value": "expected inotropic response"},
      {"measurement": "overall cardiotoxicity", "setting": "cardiac tissues; integrated platform", "value": "mild cardiotoxicity"},
      {"measurement": "beating frequency", "setting": "[3]; 12 µM, after 3 days of exposure", "value": "increased beating frequency"},
      {"measurement": "rate of proarrhythmic events per beat", "setting": "[3]; 12 µM", "value": "around 36%"},
      {"measurement": "response to subsequent isoproterenol exposure", "setting": "[3]; after 12 µM linsitinib", "value": "the inotropic response was not observed"}
    ]}
  ]
}
